Values quoted from earlier work in paper PMC4386841 (Journal of the American Chemical Society, 2015).
Like-named read-outs stand apart in the source and are kept apart here.

Assays:
[1] = system: MIF

O=c1c(-c2ccc(O)c(O)c2)coc2cc(O)ccc12 [Orita-13, 3-(3,4-dihydroxyphenyl)-7-hydroxy-4H-chromen-4-one]
Ki ([1]; dopachrome assay): 0.038 µM

CN1C(C(=O)Nc2ccccn2)=C(O)c2ccccc2S1(=O)=O [Piroxicam]
Aqueous solubility, literature value: 5.9 µg/mL
